{"source": "PubChem BioAssay AID2060909", "about": "(Molecular Pharmacology Branch, DTP, NCI, 2025)", "system": "362531-283-R-J2-PDC complex spheroid viability", "experiment": "Anticancer human tumor 362531-283-R-J2-PDC patient-derived colon adenocarcinoma cell line growth inhibition [RAS]", "conditions": "for IC50: curve of first compound; for viability, T/C: stronger effect = lower value", "summary_of_the_method": "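Tumour cells grown as complex spheroids with HUVEC endothelial cells and mesenchymal stem cells, treated with RAS pathway inhibitor combinations. Each agent spans half-log steps from near clinical Cmax, or 10 microM where Cmax is unknown.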", "key": {"[1]": {"conditions": "second compound 0.0316 µM, first compound 0.0316 µM"}, "[2]": {"conditions": "second compound 0.0316 µM, first compound 0.1 µM"}, "[3]": {"conditions": "second compound 0.0316 µM, first compound 0.316 µM"}, "[4]": {"conditions": "second compound 0.0316 µM, first compound 1 µM"}, "[5]": {"conditions": "second compound 0.0316 µM, first compound 3.16 µM"}, "[6]": {"conditions": "second compound 0.0316 µM, first compound 10 µM"}, "[7]": {"conditions": "second compound 0.1 µM, first compound 0.0316 µM"}, "[8]": {"conditions": "second compound 0.1 µM, first compound 0.1 µM"}, "[9]": {"conditions": "second compound 0.1 µM, first compound 0.316 µM"}, "[10]": {"conditions": "second compound 0.1 µM, first compound 1 µM"}, "[11]": {"conditions": "second compound 0.1 µM, first compound 3.16 µM"}, "[12]": {"conditions": "second compound 0.1 µM, first compound 10 µM"}, "[13]": {"conditions": "second compound 0.316 µM, first compound 0.0316 µM"}, "[14]": {"conditions": "second compound 0.316 µM, first compound 0.1 µM"}, "[15]": {"conditions": "second compound 0.316 µM, first compound 0.316 µM"}, "[16]": {"conditions": "second compound 0.316 µM, first compound 1 µM"}, "[17]": {"conditions": "second compound 0.316 µM, first compound 3.16 µM"}, "[18]": {"conditions": "second compound 0.316 µM, first compound 10 µM"}, "[19]": {"conditions": "second compound 1 µM, first compound 0.0316 µM"}, "[20]": {"conditions": "second compound 1 µM, first compound 0.1 µM"}, "[21]": {"conditions": "second compound 1 µM, first compound 0.316 µM"}, "[22]": {"conditions": "second compound 1 µM, first compound 1 µM"}, "[23]": {"conditions": "second compound 1 µM, first compound 3.16 µM"}, "[24]": {"conditions": "second compound 1 µM, first compound 10 µM"}}}
{"compound": "CC(=O)OC12COC1CC(O)C1(C)C(=O)C(O)C3=C(C)C(OC(=O)C(O)C(NC(=O)OC(C)(C)C)c4ccccc4)CC(O)(C(OC(=O)c4ccccc4)C21)C3(C)C", "note": "(centres undefined) + C#Cc1c(F)ccc2cc(O)cc(-c3ncc4c(N5CC6CCC(C5)N6)nc(OCC56CCCN5CC(F)C6)nc4c3F)c12;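 also: spheroids exposed to the agents for 7 days before readout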;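 as to viability, T/C: luminescence viability as percent of DMSO vehicle control wells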", "values": [{"measurement": "IC50", "setting": "second compound 0.0316 µM", "result": 169, "unit": "nM"}, {"measurement": "IC50", "setting": "second compound 0.1 µM", "result": 170, "unit": "nM"}, {"measurement": "IC50", "setting": "second compound 0.316 µM", "result": 140, "unit": "nM"}, {"measurement": "IC50", "setting": "second compound 1 µM", "result": 103, "unit": "nM"}, {"measurement": "IC50", "setting": "second compound 3.16 µM", "result": 54.3, "unit": "nM"}, {"measurement": "IC50", "setting": "second compound 10 µM", "result": "< 31.6", "unit": "nM"}, {"measurement": "viability, T/C", "setting": "[1]", "result": 83.2, "unit": "%"}, {"measurement": "viability, T/C", "setting": "[2]", "result": 76.4, "unit": "%"}, {"measurement": "viability, T/C", "setting": "[3]", "result": 18.4, "unit": "%"}, {"measurement": "viability, T/C", "setting": "[4]", "result": 14, "unit": "%"}, {"measurement": "viability, T/C", "setting": "[5]", "result": 14.6, "unit": "%"}, {"measurement": "viability, T/C", "setting": "[6]", "result": 18.5, "unit": "%"}, {"measurement": "viability, T/C", "setting": "[7]", "result": 81.9, "unit": "%"}, {"measurement": "viability, T/C", "setting": "[8]", "result": 80.5, "unit": "%"}, {"measurement": "viability, T/C", "setting": "[9]", "result": 13.6, "unit": "%"}, {"measurement": "viability, T/C", "setting": "[10]", "result": 13.6, "unit": "%"}, {"measurement": "viability, T/C", "setting": "[11]", "result": 13.4, "unit": "%"}, {"measurement": "viability, T/C", "setting": "[12]", "result": 15.5, "unit": "%"}, {"measurement": "viability, T/C", "setting": "[13]", "result": 90.9, "unit": "%"}, {"measurement": "viability, T/C", "setting": "[14]", "result": 64.4, "unit": "%"}, {"measurement": "viability, T/C", "setting": "[15]", "result": 15.1, "unit": "%"}, {"measurement": "viability, T/C", "setting": "[16]", "result": 11.7, "unit": "%"}, {"measurement": "viability, T/C", "setting": "[17]", "result": 12.9, "unit": "%"}, {"measurement": "viability, T/C", "setting": "[18]", "result": 11.8, "unit": "%"}, {"measurement": "viability, T/C", "setting": "[19]", "result": 81.2, "unit": "%"}, {"measurement": "viability, T/C", "setting": "[20]", "result": 50.8, "unit": "%"}, {"measurement": "viability, T/C", "setting": "[21]", "result": 13.6, "unit": "%"}, {"measurement": "viability, T/C", "setting": "[22]", "result": 14.6, "unit": "%"}, {"measurement": "viability, T/C", "setting": "[23]", "result": 13.6, "unit": "%"}, {"measurement": "viability, T/C", "setting": "[24]", "result": 13.1, "unit": "%"}, {"measurement": "viability, T/C", "setting": "second compound 3.16 µM, first compound 0.0316 µM", "result": 65.6, "unit": "%"}, {"measurement": "viability, T/C", "setting": "second compound 3.16 µM, first compound 0.1 µM", "result": 32.4, "unit": "%"}, {"measurement": "viability, T/C", "setting": "second compound 3.16 µM, first compound 0.316 µM", "result": 14.2, "unit": "%"}, {"measurement": "viability, T/C", "setting": "second compound 3.16 µM, first compound 1 µM", "result": 15, "unit": "%"}, {"measurement": "viability, T/C", "setting": "second compound 3.16 µM, first compound 3.16 µM", "result": 13.5, "unit": "%"}, {"measurement": "viability, T/C", "setting": "second compound 3.16 µM, first compound 10 µM", "result": 13.5, "unit": "%"}, {"measurement": "viability, T/C", "setting": "second compound 10 µM, first compound 0.0316 µM", "result": 32.3, "unit": "%"}, {"measurement": "viability, T/C", "setting": "second compound 10 µM, first compound 0.1 µM", "result": 15.6, "unit": "%"}, {"measurement": "viability, T/C", "setting": "second compound 10 µM, first compound 0.316 µM", "result": 13.5, "unit": "%"}, {"measurement": "viability, T/C", "setting": "second compound 10 µM, first compound 1 µM", "result": 15.1, "unit": "%"}, {"measurement": "viability, T/C", "setting": "second compound 10 µM, first compound 3.16 µM", "result": 13.6, "unit": "%"}, {"measurement": "viability, T/C", "setting": "second compound 10 µM, first compound 10 µM", "result": 12.5, "unit": "%"}]}
{"compound": "C[C@@H](NC(=O)c1ncnc(N)c1Cl)c1ncc(C(=O)Nc2cc(C(F)(F)F)c(Cl)cn2)s1", "note": "+ C=CC(=O)N1CCN(c2nc(OCC3CCCN3C)nc3c(F)c(-c4nc(N)cc(C)c4C(F)(F)F)c(Cl)cc23)C(C)C1", "values": [{"measurement": "IC50", "setting": "second compound 0.00316 µM", "result": "> 10000", "unit": "nM"}, {"measurement": "IC50", "setting": "second compound 0.01 µM", "result": "> 10000", "unit": "nM"}, {"measurement": "IC50", "setting": "second compound 0.0316 µM", "result": "> 10000", "unit": "nM"}, {"measurement": "IC50", "setting": "second compound 0.1 µM", "result": "> 10000", "unit": "nM"}, {"measurement": "IC50", "setting": "second compound 0.316 µM", "result": "> 10000", "unit": "nM"}, {"measurement": "IC50", "setting": "second compound 1 µM", "result": "> 10000", "unit": "nM"}, {"measurement": "viability, T/C", "setting": "second compound 0.00316 µM, first compound 0.0316 µM", "result": 102, "unit": "%"}, {"measurement": "viability, T/C", "setting": "second compound 0.00316 µM, first compound 0.1 µM", "result": 109, "unit": "%"}, {"measurement": "viability, T/C", "setting": "second compound 0.00316 µM, first compound 0.316 µM", "result": 115, "unit": "%"}, {"measurement": "viability, T/C", "setting": "second compound 0.00316 µM, first compound 1 µM", "result": 99.1, "unit": "%"}, {"measurement": "viability, T/C", "setting": "second compound 0.00316 µM, first compound 3.16 µM", "result": 84.9, "unit": "%"}, {"measurement": "viability, T/C", "setting": "second compound 0.00316 µM, first compound 10 µM", "result": 63.8, "unit": "%"}, {"measurement": "viability, T/C", "setting": "second compound 0.01 µM, first compound 0.0316 µM", "result": 103, "unit": "%"}, {"measurement": "viability, T/C", "setting": "second compound 0.01 µM, first compound 0.1 µM", "result": 95, "unit": "%"}, {"measurement": "viability, T/C", "setting": "second compound 0.01 µM, first compound 0.316 µM", "result": 93.1, "unit": "%"}, {"measurement": "viability, T/C", "setting": "second compound 0.01 µM, first compound 1 µM", "result": 97.6, "unit": "%"}, {"measurement": "viability, T/C", "setting": "second compound 0.01 µM, first compound 3.16 µM", "result": 87.3, "unit": "%"}, {"measurement": "viability, T/C", "setting": "second compound 0.01 µM, first compound 10 µM", "result": 67.4, "unit": "%"}, {"measurement": "viability, T/C", "setting": "[1]", "result": 107, "unit": "%"}, {"measurement": "viability, T/C", "setting": "[2]", "result": 99.7, "unit": "%"}, {"measurement": "viability, T/C", "setting": "[3]", "result": 98.6, "unit": "%"}, {"measurement": "viability, T/C", "setting": "[4]", "result": 105, "unit": "%"}, {"measurement": "viability, T/C", "setting": "[5]", "result": 91.2, "unit": "%"}, {"measurement": "viability, T/C", "setting": "[6]", "result": 63.4, "unit": "%"}, {"measurement": "viability, T/C", "setting": "[7]", "result": 104, "unit": "%"}, {"measurement": "viability, T/C", "setting": "[8]", "result": 112, "unit": "%"}, {"measurement": "viability, T/C", "setting": "[9]", "result": 97.9, "unit": "%"}, {"measurement": "viability, T/C", "setting": "[10]", "result": 96.3, "unit": "%"}, {"measurement": "viability, T/C", "setting": "[11]", "result": 99.9, "unit": "%"}, {"measurement": "viability, T/C", "setting": "[12]", "result": 60.3, "unit": "%"}, {"measurement": "viability, T/C", "setting": "[13]", "result": 103, "unit": "%"}, {"measurement": "viability, T/C", "setting": "[14]", "result": 95.2, "unit": "%"}, {"measurement": "viability, T/C", "setting": "[15]", "result": 100, "unit": "%"}, {"measurement": "viability, T/C", "setting": "[16]", "result": 103, "unit": "%"}, {"measurement": "viability, T/C", "setting": "[17]", "result": 102, "unit": "%"}, {"measurement": "viability, T/C", "setting": "[18]", "result": 67.2, "unit": "%"}, {"measurement": "viability, T/C", "setting": "[19]", "result": 107, "unit": "%"}, {"measurement": "viability, T/C", "setting": "[20]", "result": 104, "unit": "%"}, {"measurement": "viability, T/C", "setting": "[21]", "result": 99.3, "unit": "%"}, {"measurement": "viability, T/C", "setting": "[22]", "result": 106, "unit": "%"}, {"measurement": "viability, T/C", "setting": "[23]", "result": 97.7, "unit": "%"}, {"measurement": "viability, T/C", "setting": "[24]", "result": 63.6, "unit": "%"}]}
